Source: ChEMBL document CHEMBL3885881, “DrugMatrix”

Species: Rattus norvegicus
Assay: DrugMatrix - Regimen: Daily Repeat
Assay type: toxicity, organism-based, Sprague-Dawley
Parameters: regimen Daily Repeat, gender Male, age 6-8 weeks
Settings: in vivo, po, route oral GAVAGE, vehicle 100 % SALINE; for ALBUMIN / ALKALINE PHOSPHATASE / ASPARTATE AMINOTRANSFERASE / BLOOD UREA NITROGEN / CARBON DIOXIDE / CHLORIDE / CHOLESTEROL / CREATINE PHOSPHOKINASE / CREATININE / GLUCOSE / LACTATE DEHYDROGENASE / LIPASE / PHOSPHORUS / SODIUM / TOTAL BILIRUBIN / TOTAL PROTEIN / ALANINE AMINOTRANSFERASE: tissue Plasma; for ABSOLUTE BASOPHIL / ABSOLUTE EOSINOPHIL / ABSOLUTE LYMPHOCYTE / ABSOLUTE MONOCYTE / ABSOLUTE SEGMENTED NEUTROPHIL / BASOPHIL / EOSINOPHIL / ERYTHROCYTE COUNT / HEMATOCRIT / HEMOGLOBIN / LEUKOCYTE COUNT / LYMPHOCYTE / MEAN CORPUSCULAR HEMOGLOBIN / MEAN CORPUSCULAR HEMOGLOBIN CONCENTRATION / MONOCYTE / NEUTROPHIL / NUCLEATED RED BLOOD CELLS / PLATELET COUNT: tissue Blood
[1] = 700 mg/kg, 72 h, dose level Low, time 3 day
[2] = 700 mg/kg, […], dose level Low, time 7 day
[3] = 1400 mg/kg, 72 h, dose level High, time 3 day
[4] = 1400 mg/kg, 120 h, dose level High, time 5 day

## CN(C)C=O [DIMETHYLFORMAMIDE]
[1]
  ALBUMIN: 3.93 G/DL
  ALKALINE PHOSPHATASE: 282 u/L
  ASPARTATE AMINOTRANSFERASE: 140.33 u/L
  BLOOD UREA NITROGEN: 11.33 mg/dL
  CARBON DIOXIDE: 29.33 mmol/L
  CHLORIDE: 98.33 MEQ/L
  CHOLESTEROL: 93.83 mg/dL
  CREATINE PHOSPHOKINASE: 256.33 u/L
  CREATININE: 0.18 mg/dL
  GLUCOSE: 142 mg/dL
  LACTATE DEHYDROGENASE: 131.83 u/L
  LIPASE: 10.17 u/L
  PHOSPHORUS: 10.13 mg/dL
  SODIUM: 143.05 MEQ/L
  TOTAL BILIRUBIN: 0.2 mg/dL
  TOTAL PROTEIN: 5.9 G/DL
[2]
  ABSOLUTE BASOPHIL: 0 CELLS/uL
  ABSOLUTE EOSINOPHIL: 0 CELLS/uL
  ABSOLUTE LYMPHOCYTE: 8451.4 CELLS/uL
  ABSOLUTE MONOCYTE: 140.6 CELLS/uL
  ABSOLUTE SEGMENTED NEUTROPHIL: 648 CELLS/uL
  BASOPHIL: 0%
  EOSINOPHIL: 0%
  ERYTHROCYTE COUNT: 5.61 x10E6/uL
  HEMATOCRIT: 35.36%
  HEMOGLOBIN: 14.32 G/DL
  LEUKOCYTE COUNT: 9.24 x10E3/uL
  LYMPHOCYTE: 91%
  MEAN CORPUSCULAR HEMOGLOBIN: 25.62 pg
  MEAN CORPUSCULAR HEMOGLOBIN CONCENTRATION: 40.5 G/DL
  MONOCYTE: 1.6%
  NEUTROPHIL: 7.4%
  NUCLEATED RED BLOOD CELLS: 0 /100WBC
  PLATELET COUNT: 1220.6 x10E3/uL
  ALANINE AMINOTRANSFERASE: 100.4 u/L
  ALBUMIN: 4.46 G/DL
  ALKALINE PHOSPHATASE: 218 u/L
  ASPARTATE AMINOTRANSFERASE: 142.4 u/L
  BLOOD UREA NITROGEN: 16.4 mg/dL
  CARBON DIOXIDE: 30 mmol/L
  CHLORIDE: 98.6 MEQ/L
  CHOLESTEROL: 102 mg/dL
  CREATINE PHOSPHOKINASE: 220.4 u/L
  CREATININE: 0.23 mg/dL
  GLUCOSE: 122.8 mg/dL
  LACTATE DEHYDROGENASE: 232.2 u/L
  LIPASE: 11 u/L
  PHOSPHORUS: 12.18 mg/dL
  SODIUM: 145.44 MEQ/L
  TOTAL BILIRUBIN: 0.2 mg/dL
  TOTAL PROTEIN: 6.06 G/DL
[3]
  ABSOLUTE BASOPHIL: 0 CELLS/uL
  ABSOLUTE EOSINOPHIL: 0 CELLS/uL
  ABSOLUTE LYMPHOCYTE: 16367 CELLS/uL
  ABSOLUTE MONOCYTE: 177 CELLS/uL
  ABSOLUTE SEGMENTED NEUTROPHIL: 1156 CELLS/uL
  BASOPHIL: 0%
  EOSINOPHIL: 0%
  ERYTHROCYTE COUNT: 6.79 x10E6/uL
  HEMATOCRIT: 42.9%
  HEMOGLOBIN: 16.15 G/DL
  LEUKOCYTE COUNT: 17.7 x10E3/uL
  LYMPHOCYTE: 92.5%
  MEAN CORPUSCULAR HEMOGLOBIN: 23.8 pg
  MEAN CORPUSCULAR HEMOGLOBIN CONCENTRATION: 37.65 G/DL
  MONOCYTE: 1%
  NEUTROPHIL: 6.5%
  NUCLEATED RED BLOOD CELLS: 0 /100WBC
  PLATELET COUNT: 447 x10E3/uL
  ALANINE AMINOTRANSFERASE: 1328 u/L
  ALBUMIN: 4.1 G/DL
  ALKALINE PHOSPHATASE: 424 u/L
  ASPARTATE AMINOTRANSFERASE: 1614.5 u/L
  BLOOD UREA NITROGEN: 20 mg/dL
  CARBON DIOXIDE: 33 mmol/L
  CHLORIDE: 99.5 MEQ/L
  CHOLESTEROL: 70.5 mg/dL
  CREATINE PHOSPHOKINASE: 326.5 u/L
  CREATININE: 0.47 mg/dL
  GLUCOSE: 210.5 mg/dL
  LACTATE DEHYDROGENASE: 461 u/L
  LIPASE: 11 u/L
  PHOSPHORUS: 9 mg/dL
  SODIUM: 148.05 MEQ/L
  TOTAL BILIRUBIN: 0.35 mg/dL
  TOTAL PROTEIN: 5.8 G/DL
[4]
  ABSOLUTE BASOPHIL: 0 CELLS/uL
  ABSOLUTE EOSINOPHIL: 0 CELLS/uL
  ABSOLUTE LYMPHOCYTE: 7335 CELLS/uL
  ABSOLUTE MONOCYTE: 49.5 CELLS/uL
  ABSOLUTE SEGMENTED NEUTROPHIL: 565.5 CELLS/uL
  BASOPHIL: 0%
  EOSINOPHIL: 0%
  ERYTHROCYTE COUNT: 7.28 x10E6/uL
  HEMATOCRIT: 45.7%
